Earlier results in patent US20130079315A1, “Ophthalmic Gel Compositions” (priority 2011, published 2013).

SMILES: CCOC(=O)O[C@]1(C(=O)OCCl)CC[C@H]2[C@@H]3CCC4=CC(=O)C=C[C@]4(C)[C@H]3[C@@H](O)C[C@@]21C [LE, (11β,17α),-7-((Ethoxycarbonyl)oxy)-11-hydroxy-3-oxoandrosta-1,4-diene-17-carboxylic acid chloromethyl ester]
- solubility in water: about 0.008 mg/mL
